{"source": "patent US20240366550A1", "about": "“Drug for Treating Prostatitis or Benign Prostatic Hyperplasia (BPH)” (Beijing University of Chemical Technology, priority 2021, published 2024)", "key": {"[1]": {"tested_on": "prostatic hyperplasia", "details": "of 55 subjects in total", "quoted_text": "(§1) General information: this group of patients included 117 cases, aged 18 to 52 years old, with an average age of 34.5 years, and their disease duration ranged from 2 months to 5 years.\n(§2) Treatment method: 10 mg of SFA per day for 4 to 6 weeks."}, "[2]": {"assay": "in vivo", "details": "po"}, "[3]": {"assay": "clinical", "details": "male, human, po, 10 mg", "protocol": "The drug concentration of SFA in vivo was determined in 9 cases of the 115 patients: the patients took 10 mg of SFA orally every day for 3 consecutive days."}, "[4]": {"tested_on": "chronic bacterial prostatitis (type-II prostatitis patients)", "quoted_text": "as §1, §2\nCriteria for determining efficacy: the patients were scored according to the Chronic Prostatitis Score (NIH2CPSI) of the National Institutes of Health (NIH); the efficacy was determined based on the patient's symptoms, routine examination results of prostate fluid obtained by massage, and VB3 and EPS bacterial culture results obtained by the Meares-Stamey four-cup test."}, "[5]": {"details": "number of patients relieved/total number of patients"}, "[6]": {"details": "of the remaining 95 cases taking the drug for 6 weeks"}}, "note": "Where two headings read alike, the source gives them in different places."}
{"smiles": "C[S+]([O-])CCCCN=C=S", "note": "(centres unmarked) [SFA, Sulforaphane]", "values": [{"measurement": "Number of subjects, prostatic hyperplasia: Cured", "setting": "[1]", "result": 52}, {"measurement": "Number of subjects, prostatic hyperplasia: Effective", "setting": "[1]", "result": 2}, {"measurement": "Number of subjects, prostatic hyperplasia: Ineffective", "setting": "[1]", "result": 1}, {"measurement": "bioavailability", "setting": "[2]", "result": 90, "unit": "%"}, {"measurement": "concentration at 6 h", "setting": "[3]; blood", "result": "50.6 to 182", "unit": "ng/mL"}, {"measurement": "concentration at 6 h", "setting": "[3]; prostatic fluid obtained by massage", "result": "13.5 to 22.8", "unit": "ng/mL"}, {"measurement": "concentration at 6 h", "setting": "[3]; semen", "result": "2.6 to 5.5", "unit": "ng/mL"}, {"measurement": "total effective rate", "setting": "[4]; 12 patients infected with Escherichia coli, 11 with Streptococcus agalactiae, 8 with Streptococcus faecalis", "result": 10000}, {"measurement": "total effective rate", "setting": "[4]; 115 patients, 4 to 6 weeks", "result": 88.7, "unit": "%"}, {"measurement": "Urination symptom score", "setting": "[4]; after treatment, 10 mg SFA per day for 4 to 6 weeks, before treatment 6.8 ± 1.1, P<0.01", "result": "3.2 ± 1.1"}, {"measurement": "Quality of life score", "setting": "[4]; after treatment, 10 mg SFA per day for 4 to 6 weeks, before treatment 15.2 ± 4.6, P<0.01", "result": "7.5 ± 1.3"}, {"measurement": "Pain and discomfort score", "setting": "[4]; after treatment, 10 mg SFA per day for 4 to 6 weeks, before treatment 15.3 ± 2.6, P<0.01", "result": "10.3 ± 3.2"}, {"measurement": "NIH-CPSI score", "setting": "[4]; after treatment, 10 mg SFA per day for 4 to 6 weeks, before treatment 35.2 ± 3.3, P<0.01", "result": "20.1 ± 5.6"}, {"measurement": "White blood cells in prostatic fluid obtained by massage: Negative", "setting": "[4]; after treatment, before treatment 0", "result": "32 number of people"}, {"measurement": "White blood cells in prostatic fluid obtained by massage: ++++", "setting": "[4]; after treatment, before treatment 14", "result": "4 number of people"}, {"measurement": "White blood cells in prostatic fluid obtained by massage: +++", "setting": "[4]; after treatment, before treatment 28", "result": "9 number of people"}, {"measurement": "White blood cells in prostatic fluid obtained by massage: +", "setting": "[4]; after treatment, before treatment 31", "result": "49 number of people"}, {"measurement": "White blood cells in prostatic fluid obtained by massage: ++", "setting": "[4]; after treatment, before treatment 44", "result": "21 number of people"}, {"measurement": "Relieving rate, distending pain and discomfort in the suprapubic region", "setting": "[4]; [5]", "result": 82.9, "unit": "%"}, {"measurement": "Relieving rate, ejaculation pain", "setting": "[4]; [5]", "result": 81.2, "unit": "%"}, {"measurement": "Relieving rate, feeling of incomplete urination", "setting": "[4]; [5]", "result": 67.1, "unit": "%"}, {"measurement": "Relieving rate, frequent urination", "setting": "[4]; [5]", "result": 80.2, "unit": "%"}, {"measurement": "Relieving rate, labored urination", "setting": "[4]; [5]", "result": 72.6, "unit": "%"}, {"measurement": "Relieving rate, penis pain", "setting": "[4]; [5]", "result": 77.3, "unit": "%"}, {"measurement": "Relieving rate, perineum pain", "setting": "[4]; [5]", "result": 69.5, "unit": "%"}, {"measurement": "Relieving rate, urgent urination", "setting": "[4]; [5]", "result": 81.3, "unit": "%"}, {"measurement": "Relieving rate, white urine", "setting": "[4]; [5]", "result": 91.2, "unit": "%"}, {"measurement": "cases cured within 4 weeks of taking the drug", "setting": "[4]; of 115 patients who completed treatment, 10 mg per day", "result": 20, "unit": "cases"}, {"measurement": "cases cured", "setting": "[4]; [6]", "result": 15, "unit": "cases"}, {"measurement": "cases effective", "setting": "[4]; [6]", "result": 23, "unit": "cases"}, {"measurement": "cases ineffective", "setting": "[4]; [6]", "result": 13, "unit": "cases"}, {"measurement": "cases markedly effective", "setting": "[4]; [6]", "result": 44, "unit": "cases"}]}
